What follows are compounds tested on HCV 1b RLuc cells (dicistronic genotype 1b Con1 replicon) (assay: Renilla luciferase (RLuc)-based HCV replicon reporter assay). Details: Hepatitis C virus, 72 h, HCV 1b RLuc replicon, 72 hours; read-out: Activity (antiviral potency [EC50]).
Format: cell-based, HCV genotype 1b
In short: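 HCV 1b RLuc cells carrying a dicistronic genotype 1b Con1 replicon were treated with serially diluted compounds from 10 mM DMSO stocks. After 72 h, cells were lysed and Renilla luciferase activity measured. EC50 was obtained by non-linear regression.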

| SMILES | EC50 [pM] |
| --- | --- |
| COC(=O)N[C@@H](C)C(=O)N1CCC[C@H]1c1ncc(-c2ccc3cc(-c4ccc5cc(-c6cnc([C@@H]7[C@H]8CC[C@H](C8)N7C(=O)[C@H](C)NC(=O)OC)[nH]6)ccc5c4)ccc3c2)[nH]1 | 2610 |
| COC(=O)N[C@H](C(=O)N1CCC[C@H]1c1ncc(-c2ccc(C#Cc3ccc(-c4cnc([C@@H]5CN(CC(F)(F)F)CN5C(=O)[C@@H](NC(=O)OC)C(C)C)[nH]4)cc3)cc2)[nH]1)C(C)C | 30.4 |
| COC(=O)N[C@H](C(=O)N1CCC[C@H]1c1ncc(-c2ccc(C#Cc3ccc(-c4cnc([C@@H]5CN(CC(F)(F)F)CCN5C(=O)[C@@H](NC(=O)OC)C(C)C)[nH]4)cc3)cc2)[nH]1)C(C)C | 1510 |
| COC(=O)N[C@H](C(=O)N1OC2(CCC2)C[C@H]1c1ncc(-c2ccc(-c3ccc(-c4cnc([C@@H]5CC6(CCC6)ON5C(=O)[C@@H](NC(=O)OC)C(C)C)[nH]4)cc3)cc2)[nH]1)C(C)C | 5.4 |
| COC(=O)N[C@H](C(=O)N1CCC[C@H]1c1ncc(-c2ccc(C#Cc3ccc(-c4cnc([C@@H]5COCCN5C(=O)[C@@H](NC(=O)OC)C(C)C)[nH]4)cc3)cc2)[nH]1)C(C)C | 19.8 |
| COC(=O)N[C@H](C(=O)N1CCC[C@H]1C(=O)Nc1ccc(CCc2ccc(NC(=O)[C@@H]3CCCN3C(=O)[C@@H](NC(=O)OC)C(C)C)cc2)cc1)C(C)C | 264 |
| COC(=O)N[C@H](C(=O)NC1(c2ncc(-c3ccc(-c4ccc(-c5cnc([C@@H]6CCCN6C(=O)[C@@H](NC(=O)OC)C(C)C)[nH]5)cc4)cc3)[nH]2)CC1)C(C)C | 86.5 |
| COC(=O)N[C@H](C(=O)N1CC2(CC2)C[C@H]1c1ncc(-c2ccc3cc(-c4ccc(-c5cnc([C@@H]6C[C@H](C#N)CN6C(=O)[C@@H](NC(=O)OC)C(C)(C)C)[nH]5)cc4)ccc3c2)[nH]1)C(C)C | 12.7 |
| COC(=O)N[C@H](C(=O)N1CCC[C@H]1c1ncc(-c2ccc(-c3ccc(-c4cnc(CN5CCC[C@@H](NC(=O)OC)C5=O)[nH]4)cc3)cc2)[nH]1)C(C)C | 240 |
| COC(=O)N[C@H](C(=O)N1CCC[C@H]1c1ncc(-c2ccc(-c3cccc4c(-c5cnc([C@@H]6CCCN6C(=O)[C@@H](NC(=O)OC)C(C)C)[nH]5)cccc34)cc2)[nH]1)C(C)C | 3.2 |
| COC(=O)N[C@H](C(=O)N1CCC[C@H]1c1ncc(-c2ccc(-n3ccc(-c4cnc([C@@H]5CCCN5C(=O)[C@@H](NC(=O)OC)C(C)C)[nH]4)cc3=O)cc2)[nH]1)C(C)C | 38100 |
| COC(=O)N[C@H](C(=O)N1CCC[C@H]1c1ncc(-c2ccc(-c3ccc(-c4cnc([C@@H]5CC[C@@H]6CC[C@H](NC(=O)OC(C)(C)C)C(=O)N65)[nH]4)cc3)cc2)[nH]1)C(C)C | 325 |
| COC(=O)N[C@H](C(=O)N1C[C@@H](C#N)C[C@H]1c1ncc(-c2ccc(C#Cc3ccc(-c4cnc([C@@H]5CC(F)(F)CN5C(=O)[C@@H](NC(=O)OC)C(C)C)[nH]4)cc3)cc2)[nH]1)C(C)C | 18 |
| COC(=O)N[C@H](C(=O)N1CCC[C@H]1c1ncc(-c2ccc(-c3ccc(-c4cnc([C@@H]5CN(S(=O)(=O)c6ccccc6)CN5C(=O)[C@@H](NC(=O)OC)C(C)C)[nH]4)cc3)cc2)[nH]1)C(C)C | 78.8 |
| COC(=O)N[C@H](C(=O)N1CCC[C@H]1c1ncc(-c2ccc3cc(-c4ccc(-c5cnc([C@@H]6CCCN6C(=O)[C@H](c6ccccc6)C(C)C)[nH]5)cc4)ccc3c2)[nH]1)C(C)C | 11.2 |
| COC(=O)NC(C(=O)N1CCC[C@H]1c1ncc(-c2cc3sc(-c4ccc(-c5cnc([C@@H]6CCCN6C(=O)[C@@H](NC(=O)OC)C(C)C)[nH]5)cc4)cc3s2)[nH]1)C(C)C (stereo partly drawn) | 12.9 |
| COC(=O)N[C@H](C(=O)N1CC[C@H]1c1nc2ccc(-c3ccc(-c4ccc(-c5cnc([C@@H]6CCCN6C(=O)[C@H](NC(=O)OC)c6ccccc6)[nH]5)cc4)cc3)cc2[nH]1)C(C)C | 19.5 |

| SMILES | EC50 [pM] |
| --- | --- |
| COC(=O)N[C@@H](C)C(=O)N1CCC[C@H]1c1ncc(-c2ccc3cc(-c4ccc5cc(-c6cnc([C@@H]7[C@H]8CC[C@H](C8)N7C(=O)[C@@H](NC(=O)OC)C(C)C)[nH]6)ccc5c4)ccc3c2)[nH]1 | 1150 |
| COC(=O)N[C@H](C(=O)N1CCC[C@H]1c1nc2ccc(-c3ccc4cc(-c5ccc6nc([C@@H]7CCCN7C(=O)[C@@H](NC(=O)OC)C(C)C)[nH]c6c5)ccc4c3)cc2[nH]1)C(C)C | < 4.1 |
| COC(=O)N[C@@H](CCOCC(F)(F)F)C(=O)N1CCC[C@H]1c1ncc(-c2ccc(-c3ccc(-c4cnc([C@@H]5CCCN5C(=O)[C@H](CCOCC(F)(F)F)NC(=O)OC)[nH]4)cc3)cc2)[nH]1 | 24.4 |
| COC(=O)N[C@H](C(=O)N1CCC[C@H]1c1ncc(-c2ccc(-c3ccc(-c4cnc([C@H]5CC6(CCC6)ON5C(=O)[C@@H](NC(=O)OC)C(C)C)[nH]4)cc3)cc2)[nH]1)C(C)C | 110 |
| COC(=O)N[C@H](C(=O)N1C[C@@H](C#N)C[C@H]1c1ncc(-c2ccc3cc(-c4ccc(-c5cnc([C@@H]6CC7(CC7)CN6C(=O)[C@@H](NC(=O)OC)C(C)C)[nH]5)cc4)ccc3c2)[nH]1)C(C)C | 16.9 |
| COC(=O)N[C@H](C(=O)N1CC2(CC2)C[C@H]1c1ncc(-c2ccc3c(c2)C(F)(F)c2cc(-c4c[nH]c([C@@H]5CCCN5C(=O)[C@@H](NC(=O)OC)C5CCOCC5)n4)ccc2-3)[nH]1)C(C)C | 61.4 |
| COC(=O)NC(C(=O)N1CCC[C@H]1c1ncc(-c2ccc(-c3ccc(-c4cnc([C@@H]5CCCN5C(=O)[C@@H](NC(=O)OC)C(C)C)[nH]4)cc3)c3ccccc23)[nH]1)C(C)C (stereo partly drawn) | 6.7 |
| COC(=O)N[C@H](C(=O)N1CCC[C@H]1c1ncc(-c2ccc(-c3ccc4cc(-c5cnc([C@@H]6C[C@H](C#N)CN6C(=O)[C@H](NC(=O)OC)c6ccccc6)[nH]5)ccc4c3)cc2)[nH]1)C(C)C | 9.7 |
| COC(=O)N[C@H](C(=O)N1CCCC[C@H]1c1ncc(-c2ccc(C#Cc3ccc(-c4cnc([C@@H]5CCCN5C(=O)[C@@H](NC(=O)OC)C(C)C)[nH]4)cc3)cc2)[nH]1)C(C)C | 22.4 |
| COC(=O)N[C@H](C(=O)N1CCC[C@H]1c1ncc(-c2ccc3c(c2)COc2c-3ccc3cc(-c4cnc([C@@H]5CCCN5C(=O)[C@@H](NC(=O)OC)C5CCOCC5)[nH]4)ccc23)[nH]1)C1CCOCC1 | 41.7 |
| COC(=O)N[C@@H](CCOC(F)F)C(=O)N1CCC[C@H]1c1ncc(-c2ccc(-c3ccc(-c4cnc([C@@H]5CC6(CN5C(=O)[C@@H](NC(=O)OC)C(C)C)OCCO6)[nH]4)cc3)cc2)[nH]1 | 128 |
| COC(=O)N[C@H](C(=O)N1CCC[C@H]1c1ncc(-c2ccc(-c3ccc(-c4cnc([C@@H]5CC6(CN5C(=O)[C@@H](NC(=O)OC)C(C)C)OCCO6)[nH]4)cc3)cc2)[nH]1)C(C)C | 55.5 |
| COC(=O)N[C@H](C(=O)N1CCC[C@H]1c1ncc(-c2ccc3c(c2)COCc2cc(-c4cnc([C@@H]5CCCN5C(=O)[C@@H](NC(=O)OC)C(C)C)[nH]4)ccc2-3)[nH]1)C(C)C | 32.7 |
| COC(=O)N[C@H](C(=O)N1CCC[C@H]1c1nc2ccc(-c3ccc(-c4cnc([C@@H]5[C@H]6CC[C@H](C6)N5C(=O)[C@@H](NC(=O)OC)C(C)C)[nH]4)cc3)cc2[nH]1)C(C)C | 55.3 |
| COC(=O)N[C@H](C(=O)N1CCC[C@H]1c1nc(C(=O)N2CCC3(CC2)CCN(C(=O)c2c[nH]c([C@@H]4CCCN4C(=O)[C@@H](NC(=O)OC)C(C)C)n2)CC3)c[nH]1)C(C)C | > 44400 |
| COC(=O)N[C@H](C(=O)N1CCC[C@H]1c1nc(-c2ccc3c(c2)C(F)(F)c2cc(-c4cnc([C@@H]5CC6(CC6)CN5C(=O)[C@@H](NC(=O)OC)C(C)C)[nH]4)ccc2-3)c[nH]1)C(C)C | 12.5 |
